Values quoted from earlier work as cited in patent US20050277634A1, “Liquid composition for veterinary medicine and process for the preparation and use thereof” (Boehringer Ingelheim Vetmedica GmbH, priority 2004, published 2005).

Settings: injectable solution, subcutaneous administration

Bioavailability: fully bioavailable | Time to maximum plasma concentrations: after a few hours
SMILES: Cc1cnc(NC(=O)C2=C(O)c3ccccc3S(=O)(=O)N2C)s1 [meloxicam]
